Experimental data from patent US20180282323A1, “Mesoionic imidazole derivatives as insecticides” (BAYER CROPSCIENCE AKTIENGESELLSCHAFT, priority 2015, published 2018).
Like-named read-outs stand apart in the source and are kept apart here.

Tests used:
[1] = test system: Myzus persicae; experiment: Myzus persicae oral test; assay type: in vivo; conditions: application rate 20 ppm, oral uptake through parafilm, after 5 days; for pest or weed control at 20 ppm: Myzus persicae, 120 h, read-out: efficacy
Protocol: Myzus persicae—Oral Test Solvent: 100 parts by weight of acetone
To produce an appropriate active ingredient formulation, 1 part by weight of active ingredient is dissolved with the stated parts by weight of solvent and made up with water until the desired concentration is attained.
50 μl of the active ingredient formulation are transferred into microtitre plates and made up to a final volume of 200 μl with 150 μl of IPL41 insect medium (33%+15% sugar). Subsequently, the plates are sealed with parafilm, which a mixed population of green peach aphids (Myzus persicae) within a second microtitre plate is able to puncture and imbibe the solution through it.
After 5 days, the efficacy in % is determined. 100% means that all the aphids have been killed; 0% means that no aphids have been killed.

[2] = log P by HPLC on reversed-phase column (EEC directive 79/831 Annex V.A8); assay type: physicochemical; conditions: for log p a): HPLC on reversed-phase column
Protocol: a) The determination of the [M+H]^+ by LC-MS in the acidic range was effected at pH 2.7, with acetonitrile (containing 0.1% formic acid) and water as eluents; linear gradient from 10% acetonitrile to 95% acetonitrile, instrument: Agilent 1100 LC system, Agilent MSD system, HTS PAL.
The log P values reported in the tables and preparation examples above were determined in accordance with EEC directive 79/831 Annex V.A8 by HPLC (High Performance Liquid Chromatography) using a reversed-phase column (C18). Temperature 43° C.

[3] = HPLC on reversed-phase column (footnote a)
[4] = reversed-phase C18 HPLC column, pH 2.7, HPLC on reversed-phase column (footnote a), read-out: log p
[5] = reversed-phase C18 HPLC column, HPLC-MS, reversed-phase C18, 43° C., calibration with alkan-2-ones, read-out: log P

| log p a) [2] | log p [2, 3] | Compound | efficacy [1] [%] | also measured |
| --- | --- | --- | --- | --- |
| 2.67 |  | Cc1ccc[n+]2c(C(=O)Nc3c(F)cccc3F)c([O-])n(C(C)c3ccc(Cl)nc3)c12 (racemic) [Example I-1-275] | 100 |  |
|  | 2.03 | O=C(Cn1ccc(Cl)n1)c1c([O-])n(Cc2cnc(Cl)s2)c2cccc[n+]12 [Example I-1-011] | 100 |  |
|  | 1 | O=C(COc1cccnc1)c1c([O-])n(Cc2cnc(Cl)s2)c2cccc[n+]12 [Example I-1-018] | 100 |  |
|  | 2.67 | O=C(CSc1ccccc1)c1c([O-])n(Cc2cnc(Cl)s2)c2cccc[n+]12 [Example I-1-025] | 100 |  |
|  | 1.72 | O=C(C[S+]([O-])Cc1ccccc1)c1c([O-])n(Cc2cnc(Cl)s2)c2cccc[n+]12 (stereo not shown) [Example I-1-035] | 100 |  |
|  | 1.32 | CC(C)[S+]([O-])CC(=O)c1c([O-])n(Cc2cnc(Cl)s2)c2cccc[n+]12 (stereo not shown) [Example I-1-038] | 100 |  |
|  |  | CCN(CC(=O)c1c([O-])n(Cc2cnc(Cl)s2)c2cccc[n+]12)C(C)=O [Example I-1-040, 3-(N-Acetyl-N-ethylglycyl)-1-[(2-chloro-1,3-thiazol-5-yl)methyl]-1H-imidazo[1,2-a]pyridin-4-ium-2-olate] |  | pest or weed control at 20 ppm [1]: 100%; chromatographic logP [2, 4]: 1.49; chromatographic logP [2, 5]: 1.49 |
|  |  | CCS(=O)(=O)CC(=O)c1c([O-])n(Cc2cnc(Cl)s2)c2cccc[n+]12 [Example I-1-042, 1-[(2-chloro-1,3-thiazol-5-yl)methyl]-3-[(ethylsulphonyl)acetyl]-1H-imidazo[1,2-a]pyridin-4-ium-2-olate] |  | pest or weed control at 20 ppm [1]: 100%; chromatographic logP [2, 4]: 1.38; chromatographic logP [2, 5]: 1.38 |
|  | 1.83 | N#Cc1ccn(CC(=O)c2c([O-])n(Cc3cnc(Cl)s3)c3cccc[n+]23)n1 [Example I-1-047] | 100 |  |
|  | 2 | O=C(Cn1cnc(C(F)(F)F)c1)c1c([O-])n(Cc2cnc(Cl)s2)c2cccc[n+]12 [Example I-1-051] | 100 |  |
|  | 1.94 | CSc1ccn(CC(=O)c2c([O-])n(Cc3cnc(Cl)s3)c3cccc[n+]23)n1 [Example I-1-052] | 100 |  |
|  | 1 | O=C(CNCc1ccccc1)c1c([O-])n(Cc2cnc(Cl)s2)c2cccc[n+]12 [Example I-1-053] | 90 |  |
|  | 2.41 | O=C(COCc1ccc(F)cc1)c1c([O-])n(Cc2cnc(Cl)s2)c2cccc[n+]12 [Example I-1-055] | 100 |  |
|  | 2.44 | O=C(Cn1ccc(C(F)(F)F)n1)c1c([O-])n(Cc2cnc(Cl)s2)c2cccc[n+]12 [Example I-1-057] | 90 |  |
|  | 1.44 | O=C(COCc1ccccc1)c1c([O-])n(Cc2cncnc2)c2cccc[n+]12 [Example I-1-059] | 100 |  |
|  | 1.18 | O=C(Cn1ccnn1)c1c([O-])n(Cc2cnc(Cl)s2)c2cccc[n+]12 [Example I-1-064] | 100 |  |
|  | 0.73 | N#Cc1cnn(CC(=O)c2c([O-])n(Cc3cncnc3)c3cccc[n+]23)c1 [Example I-1-065] | 100 |  |
|  | 0.56 | O=C(Cn1cccn1)c1c([O-])n(Cc2cncnc2)c2cccc[n+]12 [Example I-1-066] | 90 |  |
|  | 1.41 | COC(=O)COCC(=O)c1c([O-])n(Cc2cnc(Cl)s2)c2cccc[n+]12 [Example I-1-075] | 100 |  |

| log p a) [2] | log p [2, 3] | Compound | efficacy [1] [%] | also measured |
| --- | --- | --- | --- | --- |
|  | 2.77 | O=C(COc1ccccc1Cl)c1c([O-])n(Cc2cnc(Cl)s2)c2cccc[n+]12 [Example I-1-078] | 90 |  |
|  | 2.17 | O=C(COc1ccc(Cl)nc1)c1c([O-])n(Cc2cnc(Cl)s2)c2cccc[n+]12 [Example I-1-084] | 100 |  |
|  | 1.32 | O=C(COc1ccccn1)c1c([O-])n(Cc2cnc(Cl)s2)c2cccc[n+]12 [Example I-1-088] | 100 |  |
|  | 1.31 | Cc1ccc[n+]2c(C(=O)Cn3cncn3)c([O-])n(Cc3cnc(Cl)s3)c12 [Example I-1-096] | 100 |  |
|  | 1.15 | COCC(=O)c1c([O-])n(Cc2cncc(Cl)c2)c2cccc[n+]12 [Example I-1-109] | 100 |  |
|  | 2.41 | CCCOCC(=O)c1c([O-])n(Cc2cnc(Cl)s2)c2ccc(Cl)c[n+]12 [Example I-1-117] | 100 |  |
| 2.05 |  | O=C(Nc1nccs1)c1c([O-])n(Cc2cnc(Cl)s2)c2cccc[n+]12 [Example I-1-318] |  |  |
| 1.91 |  | O=C(Nc1ncccc1[N+](=O)[O-])c1c([O-])n(Cc2cnc(Cl)s2)c2cccc[n+]12 [Example I-1-320] |  |  |
| 3.1 |  | Cc1cccc(F)c1NC(=O)c1c([O-])n(Cc2cnc(Cl)s2)c2cccc[n+]12 [Example I-1-322] |  |  |
| 1.6 |  | Cn1nccc1NC(=O)c1c([O-])n(Cc2cnc(Cl)s2)c2cccc[n+]12 [Example I-1-330] |  |  |
| 2.17 |  | O=C(Nc1c(Cl)ncnc1Cl)c1c([O-])n(Cc2cnc(Cl)s2)c2cccc[n+]12 [Example I-1-331] |  |  |
| 1.99 |  | Cn1ncc(Br)c1NC(=O)c1c([O-])n(Cc2cnc(Cl)s2)c2cccc[n+]12 [Example I-1-332] |  |  |
| 1.81 |  | O=C(Nc1cnccc1Cl)c1c([O-])n(Cc2cnc(Cl)s2)c2cccc[n+]12 [Example I-1-334] |  |  |
| 1.58 |  | O=C(Nc1ncccc1Br)c1c([O-])n(Cc2cnc(Cl)s2)c2cccc[n+]12 [Example I-1-335] |  |  |
| 1.99 |  | O=C(Nc1ncccc1C(F)(F)F)c1c([O-])n(Cc2cnc(Cl)s2)c2cccc[n+]12 [Example I-1-336] |  |  |
| 0.91 |  | Cc1cccnc1NC(=O)c1c([O-])n(Cc2cnc(Cl)s2)c2cccc[n+]12 [Example I-1-337] |  |  |
| 1.98 |  | O=C(Nc1ncns1)c1c([O-])n(Cc2cnc(Cl)s2)c2cccc[n+]12 [Example I-1-338] |  |  |
|  |  | Clc1ccc(CNc2ncccn2)cn1 [N-[(6-chloropyridin-3-yl)methyl]pyrimidin-2-amine] |  | chromatographic logP [2]: 1.36 |

| Compound | log p a) [2] | log p [2, 3] | efficacy [1] [%] | also measured |
| --- | --- | --- | --- | --- |
| Cc1ccc[n+]2c(C(=O)NC3CC3)c([O-])n(C(C)c3ccc(Cl)nc3)c12 (racemic) [Example I-1-257] | 1.52 |  | 100 |  |
| Cc1ccc[n+]2c(C(=O)NC3CC3)c([O-])n(C(C)c3ccc(Cl)nc3)c12 (racemic) [Example I-1-259] | 1.96 |  | 90 |  |
| O=C(CCl)c1c([O-])n(Cc2ccc(Cl)nc2)c2cccc[n+]12 [Example I-1-001] |  | 1.62 | 100 |  |
| O=C(COc1cccnc1)c1c([O-])n(Cc2ccc(Cl)nc2)c2cccc[n+]12 [Example I-1-006] |  | 0.93 | 100 |  |
| O=C(COc1ccc(F)cc1)c1c([O-])n(Cc2ccc(Cl)nc2)c2cccc[n+]12 [Example I-1-031] |  | 2.27 | 100 |  |
| C[S+]([O-])CC(=O)c1c([O-])n(Cc2cnc(Cl)s2)c2cccc[n+]12 (stereo not shown) [Example I-1-039] |  | 1.08 | 100 |  |
| N#Cc1cnn(CC(=O)c2c([O-])n(Cc3ccc(Cl)nc3)c3cccc[n+]23)c1 [Example I-1-060] |  | 1.55 | 100 |  |
| CCN(CC(=O)c1c([O-])n(Cc2ccc(Cl)nc2)c2cccc[n+]12)C(C)=O [Example I-1-071] |  | 1.4 | 90 |  |
| CSCC(=O)c1c([O-])n(Cc2cncnc2)c2cccc[n+]12 [Example I-1-077] |  | 0.79 | 100 |  |
| CCOCC(=O)c1c([O-])n(Cc2ccc(Cl)nc2)c2cc(C(F)(F)F)cc[n+]12 [Example I-1-079] |  | 2.17 | 90 |  |
| Cc1ccc2n(Cc3ccc(Cl)nc3)c([O-])c(C(=O)CCl)[n+]2c1 [Example I-1-091] |  | 1.87 | 100 |  |
| Cc1cccc2n(Cc3ccc(Cl)nc3)c([O-])c(C(=O)CCl)[n+]12 [Example I-1-098] |  | 1.74 | 100 |  |
| Cc1cccc2n(Cc3ccc(Cl)nc3)c([O-])c(C(=O)Cn3cccn3)[n+]12 [Example I-1-103] |  | 1.47 | 100 |  |
| O=C(CCl)c1c([O-])n(Cc2cnc(Cl)s2)c2ccc(Cl)c[n+]12 [Example I-1-108] |  | 2.2 | 100 |  |
| O=C(CCl)c1c([O-])n(Cc2ccc(Cl)nc2)c2c(F)cc(F)c[n+]12 [Example I-1-110] |  | 1.96 | 100 |  |
| O=C(Nc1nccs1)c1c([O-])n(Cc2ccc(Cl)nc2)c2cccc[n+]12 [Example I-1-324] | 1.93 |  |  |  |
| Cc1cnc(NC(=O)c2c([O-])n(Cc3ccc(Cl)nc3)c3cccc[n+]23)s1 [Example I-1-327] | 2.17 |  |  |  |
| COc1cc(NC(=O)c2c([O-])n(Cc3ccc(Cl)nc3)c3cccc[n+]23)ccn1 [Example I-1-329] | 1.41 |  |  |  |
